# Laboratory results as given in US20260297070A1, “CYCLIC [COMPOUND LEFT OUT] WRN INHIBITORS” (Nimbus Wadjet, Inc., priority 2023, published 2026).
# Molecular target: T1, human Werner helicase (WRN-BV08, Uniprot Q14191, amino acids 517-1235 with L1074F point mutation) (Homo sapiens, UniProt Q14191, L1074F)
# T1 construct: Uniprot Q14191, amino acids 517-1235 with L1074F point mutation; TEV-cleavable 8×His (C, cleaved yes); made in house; host or cells: Sf9 insect cells (baculovirus)
# Assay: WRN (BV08) ADP-Glo Assay
# Format: biochemical
# Details: 0.15 nM WRN, 5 μM ATP, 0.1 nM DNA duplex, 15 min preincubation, 60 min at 25° C., pH 7.5, 1% DMSO; read-out: ADP-Glo_hWRN_IC50
# Summary of the method: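 Untagged WRN (Sf9-expressed, TEV-cleaved) at 0.15 nM was preincubated 15 min at 25 °C with compound, then reacted 60 min at 25 °C with 5 μM ATP and 0.1 nM DNA duplex in Bicine pH 7.5, 1 mM MgCl2. ADP-Glo luminescence gave % inhibition; IC50 by four-parameter fit.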
# T1 sequence (Q14191 with tags, fused parts or gaps L1074F limits assumed): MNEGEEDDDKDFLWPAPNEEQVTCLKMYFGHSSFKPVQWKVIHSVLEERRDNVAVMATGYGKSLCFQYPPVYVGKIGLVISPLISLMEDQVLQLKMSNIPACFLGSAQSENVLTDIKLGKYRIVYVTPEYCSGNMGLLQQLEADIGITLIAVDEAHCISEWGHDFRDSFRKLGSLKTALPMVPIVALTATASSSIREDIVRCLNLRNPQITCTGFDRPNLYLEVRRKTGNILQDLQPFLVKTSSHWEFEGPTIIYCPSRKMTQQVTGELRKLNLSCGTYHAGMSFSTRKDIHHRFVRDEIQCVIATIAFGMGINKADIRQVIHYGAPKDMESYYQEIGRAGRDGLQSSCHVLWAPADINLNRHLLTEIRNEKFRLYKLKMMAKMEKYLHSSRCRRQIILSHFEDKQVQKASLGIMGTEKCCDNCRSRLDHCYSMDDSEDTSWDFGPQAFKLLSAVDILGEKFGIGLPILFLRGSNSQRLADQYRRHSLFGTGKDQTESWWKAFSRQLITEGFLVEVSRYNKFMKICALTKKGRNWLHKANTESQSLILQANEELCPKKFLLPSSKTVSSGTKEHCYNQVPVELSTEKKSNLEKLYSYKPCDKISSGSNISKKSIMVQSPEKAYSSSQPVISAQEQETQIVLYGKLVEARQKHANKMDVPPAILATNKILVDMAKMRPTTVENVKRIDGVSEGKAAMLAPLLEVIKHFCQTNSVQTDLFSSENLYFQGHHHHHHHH
row,IC50,SMILES
1,5 to 10 µM,"O=C(Cc1ccc(C(F)(F)F)cc1)N(Cc1ccncc1)C1C=CS(=O)(=O)C1 (stereo not drawn) [I-254, N-(1,1-dioxo-2,3-dihydro-1lambda6-thiophen-3-yl)-N-[(pyridin-4-yl)methyl]-2-[4-(trifluoromethyl)phenyl]acetamide]"
2,< 0.5 µM,"CC(C)(O)c1cc(CN(C(=O)Cc2ccc(C(F)(F)C(F)(F)F)cc2)C2C=CS(=O)(=O)C2)ccn1 (single isomer, unassigned) [I-673]"
3,> 50 µM,"O=C(Cc1ccc(-n2cccc2)cc1)N(c1ccccc1)C1C=CS(=O)(=O)C1 (stereo not drawn) [I-421, N-(1,1-dioxo-2,3-dihydro-1lambda6-thiophen-3-yl)-N-phenyl-2-[4-(1H-pyrrol-1-yl)phenyl]acetamide]"
4,< 0.5 µM,"CN(C)C(=O)C(C(=O)N(Cc1ccnc(C(C)(C)O)c1)C1C=CS(=O)(=O)C1)c1ccc(-c2ccc(F)cc2)cc1 (stereo not drawn) [I-34, N-(1,1-dioxo-2,3-dihydro-1lambda6-thiophen-3-yl)-2-{4′-fluoro-[1,1′-biphenyl]-4-yl}-N-{[2-(2-hydroxypropan-2-yl)pyridin-4-yl]methyl}-N′,N′-dimethylpropanediamide]"
5,0.5 to 5 µM,"COc1cc(CN(C(=O)Cc2ccc(S(F)(F)(F)(F)F)cc2)C2C=CS(=O)(=O)C2)cc(OC)n1 (stereo not drawn) [I-684, N-[(2,6-dimethoxypyridin-4-yl)methyl]-N-(1,1-dioxo-2,3-dihydro-1lambda6-thiophen-3-yl)-2-[4-(pentafluoro-lambda6-sulfanyl)phenyl]acetamide]"
6,< 0.5 µM,"CC(C)(O)c1cc(CN(C(=O)C(F)c2ccc(-c3ccc(F)c(F)c3)cc2F)C2C=CS(=O)(=O)C2)ccn1 (stereo not drawn) [I-77, N-(1,1-dioxo-2,3-dihydro-1lambda6-thiophen-3-yl)-2-fluoro-N-{[2-(2-hydroxypropan-2-yl)pyridin-4-yl]methyl}-2-{3,3′,4′-trifluoro-[1,1′-biphenyl]-4-yl}acetamide]"
7,0.5 to 5 µM,"O=C(Cc1ccc(-n2cccc2)cc1)N(Cc1ccncc1)C1C=CS(=O)(=O)C1 (single isomer, unassigned) [I-193]"
8,> 50 µM,"O=C(Cn1cc(Cl)cn1)N(Cc1ccncc1)C1C=CS(=O)(=O)C1 (stereo not drawn) [I-427, 2-(4-chloro-1H-pyrazol-1-yl)-N-(1,1-dioxo-2,3-dihydro-1lambda6-thiophen-3-yl)-N-[(pyridin-4-yl)methyl]acetamide]"
9,> 50 µM,"O=C(Cc1cnn(Cc2ccccc2)c1)N(Cc1ccncc1)C1C=CS(=O)(=O)C1 (stereo not drawn) [I-544, 2-(1-benzyl-1H-pyrazol-4-yl)-N-(1,1-dioxo-2,3-dihydro-1lambda6-thiophen-3-yl)-N-[(pyridin-4-yl)methyl]acetamide]"
10,> 50 µM,"CC(=O)N(C)CC(C(=O)N(Cc1ccncc1)C1C=CS(=O)(=O)C1)c1ccc(-c2ccc(F)cc2)cc1 (stereo not drawn) [I-452, N-(1,1-dioxo-2,3-dihydro-1lambda6-thiophen-3-yl)-2-{4′-fluoro-[1,1′-biphenyl]-4-yl}-3-(N-methylacetamido)-N-[(pyridin-4-yl)methyl]propanamide]"
11,> 50 µM,"O=C(Cc1ccn(-c2ccc(F)cc2)n1)N(Cc1ccncc1)C1C=CS(=O)(=O)C1 (stereo not drawn) [I-394, N-(1,1-dioxo-2,3-dihydro-1lambda6-thiophen-3-yl)-2-[1-(4-fluorophenyl)-1H-pyrazol-3-yl]-N-[(pyridin-4-yl)methyl]acetamide]"
12,0.5 to 5 µM,"COc1cc(CN(C(=O)Cn2ncc3cc(C(F)(F)C(F)(F)F)ccc32)[C@@H]2C=CS(=O)(=O)C2)ccn1 [I-770, N-[(3R)-1,1-dioxo-2,3-dihydro-1lambda6-thiophen-3-yl]-N-[(2-methoxypyridin-4-yl)methyl]-2-[5-(1,1,2,2,2-pentafluoroethyl)-1H-indazol-1-yl]acetamide]"
13,10 to 50 µM,"O=C(Cc1ncc(-c2ccccc2)s1)N(Cc1ccncc1)C1C=CS(=O)(=O)C1 (stereo not drawn) [I-300, N-(1,1-dioxo-2,3-dihydro-1lambda6-thiophen-3-yl)-2-(5-phenyl-1,3-thiazol-2-yl)-N-[(pyridin-4-yl)methyl]acetamide]"
14,10 to 50 µM,"CS(=O)(=O)Nc1ccc(CN(C(=O)Cc2ccc(-n3cccc3)cc2)C2C=CS(=O)(=O)C2)cc1 (stereo not drawn) [I-284, N-(1,1-dioxo-2,3-dihydro-1lambda6-thiophen-3-yl)-N-[(4-methanesulfonamidophenyl)methyl]-2-[4-(1H-pyrrol-1-yl)phenyl]acetamide]"
15,5 to 10 µM,"O=C(Cc1ccc(CC(F)(F)F)cc1)N(Cc1ccncc1)C1C=CS(=O)(=O)C1 (stereo not drawn) [I-263, N-(1,1-dioxo-2,3-dihydro-1lambda6-thiophen-3-yl)-N-[(pyridin-4-yl)methyl]-2-[4-(2,2,2-trifluoroethyl)phenyl]acetamide]"
16,> 50 µM,"O=C(Cc1ccc(-n2cccc2)cc1)N(CC1CCOCC1)C1C=CS(=O)(=O)C1 (stereo not drawn) [I-485, N-(1,1-dioxo-2,3-dihydro-1lambda6-thiophen-3-yl)-N-[(oxan-4-yl)methyl]-2-[4-(1H-pyrrol-1-yl)phenyl]acetamide]"
17,10 to 50 µM,"O=C(Cc1ccc(-n2cccc2)cc1)N(Cc1ccccc1)C1C=C(Br)S(=O)(=O)C1 (stereo not drawn) [I-269, 2-(4-(1H-pyrrol-1-yl)phenyl)-N-benzyl-N-(5-bromo-1,1-dioxido-2,3-dihydrothiophen-3-yl)acetamide]"
18,> 50 µM,"O=C(Cc1ccc(-n2cccc2)cc1)N(C1C=CS(=O)(=O)C1)C1CCC1 (stereo not drawn) [I-533, N-cyclobutyl-N-(1,1-dioxo-2,3-dihydro-1lambda6-thiophen-3-yl)-2-[4-(1H-pyrrol-1-yl)phenyl]acetamide]"
19,> 50 µM,"O=C(Cc1nc(C2CC2)cs1)N(Cc1ccncc1)C1C=CS(=O)(=O)C1 (stereo not drawn) [I-580, 2-(4-cyclopropyl-1,3-thiazol-2-yl)-N-(1,1-dioxo-2,3-dihydro-1lambda6-thiophen-3-yl)-N-[(pyridin-4-yl)methyl]acetamide]"
20,0.5 to 5 µM,"Cc1cccn1-c1ccc(CC(=O)N(Cc2ccnnc2)C2C=CS(=O)(=O)C2)c(F)c1 (stereo not drawn) [I-150, N-(1,1-dioxo-2,3-dihydro-1lambda6-thiophen-3-yl)-2-[2-fluoro-4-(2-methyl-1H-pyrrol-1-yl)phenyl]-N-[(pyridazin-4-yl)methyl]acetamide]"
21,0.5 to 5 µM,"COc1cc(CN(C(=O)C(OCC2CCOCC2)c2ccc(-c3ccc(F)c(F)c3)cc2F)[C@@H]2C=CS(=O)(=O)C2)ccn1 (stereo partly drawn) [I-811, N-[(3R)-1,1-dioxo-2,3-dihydro-1lambda6-thiophen-3-yl]-N-[(2-methoxypyridin-4-yl)methyl]-2-[(oxan-4-yl)methoxy]-2-{3,3′,4′-trifluoro-[1,1′-biphenyl]-4-yl}acetamide]"
22,0.5 to 5 µM,"CC(C)(O)c1cc(CN(C(=O)Cc2ccc(C(F)(F)F)cc2)C2C=CS(=O)(=O)C2)ccn1 (stereo not drawn) [I-135, N-(1,1-dioxo-2,3-dihydro-1lambda6-thiophen-3-yl)-N-{[2-(2-hydroxypropan-2-yl)pyridin-4-yl]methyl}-2-[4-(trifluoromethyl)phenyl]acetamide]"
23,0.5 to 5 µM,"O=C(Cc1ccc(-n2cccc2)cc1F)N(Cc1ccncc1)C1C=CS(=O)(=O)C1 (stereo not drawn) [I-161, N-(1,1-dioxo-2,3-dihydro-1lambda6-thiophen-3-yl)-2-[2-fluoro-4-(1H-pyrrol-1-yl)phenyl]-N-[(pyridin-4-yl)methyl]acetamide]"
24,0.5 to 5 µM,"COc1cc(CN(C(=O)Cc2ccc(C3(C)CC3)cc2F)C2C=CS(=O)(=O)C2)ccn1 (stereo not drawn) [I-97, N-(1,1-dioxo-2,3-dihydro-1lambda6-thiophen-3-yl)-2-[2-fluoro-4-(1-methylcyclopropyl)phenyl]-N-[(2-methoxypyridin-4-yl)methyl]acetamide]"
25,5 to 10 µM,"O=C(Cc1ccc(C2CC2(F)F)cc1)N(Cc1ccncc1)C1C=CS(=O)(=O)C1 (stereo not drawn) [I-273, 2-[4-(2,2-difluorocyclopropyl)phenyl]-N-(1,1-dioxo-2,3-dihydro-1lambda6-thiophen-3-yl)-N-[(pyridin-4-yl)methyl]acetamide]"
26,< 0.5 µM,"O=C(Cc1ccc(S(F)(F)(F)(F)F)cc1)N(Cc1ccncc1)C1C=CS(=O)(=O)C1 (stereo not drawn) [I-63, N-(1,1-dioxo-2,3-dihydro-1lambda6-thiophen-3-yl)-2-[4-(pentafluoro-lambda6-sulfanyl)phenyl]-N-[(pyridin-4-yl)methyl]acetamide]"
27,5 to 10 µM,"COc1cc(CN(C(=O)C(OC2CS(=O)(=O)C2)c2ccc(-c3ccc(F)c(F)c3)cc2F)[C@@H]2C=CS(=O)(=O)C2)ccn1 (single isomer, unassigned) [I-835, (2R*)-2-[(1,1-dioxo-1lambda6-thietan-3-yl)oxy]-N-[(3R)-1,1-dioxo-2,3-dihydro-1lambda6-thiophen-3-yl]-N-[(2-methoxypyridin-4-yl)methyl]-2-{3,3′,4′-trifluoro-[1,1′-biphenyl]-4-yl}acetamide]"
28,> 50 µM,"O=C(C1Cc2ccc(-n3cccc3)cc2C1)N(Cc1ccncc1)C1C=CS(=O)(=O)C1 (stereo not drawn) [I-422, N-(1,1-dioxo-2,3-dihydro-1lambda6-thiophen-3-yl)-N-[(pyridin-4-yl)methyl]-5-(1H-pyrrol-1-yl)-2,3-dihydro-1H-indene-2-carboxamide]"
29,< 0.5 µM,"CC(O)(c1cc(CN(C(=O)Cn2cc(-c3cc(F)c(F)c(F)c3)cn2)C2C=CS(=O)(=O)C2)ccn1)C(F)F (stereo not drawn) [I-827, N-{[2-(1,1-difluoro-2-hydroxypropan-2-yl)pyridin-4-yl]methyl}-N-(1,1-dioxo-2,3-dihydro-1lambda6-thiophen-3-yl)-2-[4-(3,4,5-trifluorophenyl)-1H-pyrazol-1-yl]acetamide]"
30,> 50 µM,"O=C(Cc1ccc(-n2cccc2)cc1)N(CC12CC(C1)C2)C1C=CS(=O)(=O)C1 (stereo not drawn) [I-540, N-({bicyclo[1.1.1]pentan-1-yl}methyl)-N-(1,1-dioxo-2,3-dihydro-1lambda6-thiophen-3-yl)-2-[4-(1H-pyrrol-1-yl)phenyl]acetamide]"
